# Laboratory results published in ChEMBL document CHEMBL4414672, “Synthesis of certain benzothieno[3,2-d]pyrimidine derivatives as a selective SIRT2 inhibitors” (Eur J Med Chem, 2020).
# Key:
# K562 = assay: Growth inhibition of human K562 cells at 10^-5 M incubated for 48 hrs by sulforhodamine B assay; assay type: functional; details: K562, 48 h, read-out: GI
# OVCAR-3 = assay: Growth inhibition of human OVCAR3 cells at 10^-5 M incubated for 48 hrs by sulforhodamine B assay; assay type: functional; details: OVCAR-3, 48 h, read-out: GI
# A498 = assay: Growth inhibition of human A498 cells at 10^-5 M incubated for 48 hrs by sulforhodamine B assay; assay type: functional; details: A498, 48 h, read-out: GI
# MCF7 [1] = assay: Cytotoxicity against human MCF7 cells assessed as reduction in cell viability after 24 hrs by MTT assay; assay type: functional, cell-based; details: MCF7, 24 h
# Malme-3M = assay: Growth inhibition of human MALME-3M cells at 10^-5 M incubated for 48 hrs by sulforhodamine B assay; assay type: functional; details: read-out: GI
# NCI/ADR-RES = assay: Growth inhibition of human NCI/ADR-RES cells at 10^-5 M incubated for 48 hrs by sulforhodamine B assay; assay type: functional; details: read-out: GI
# NCI-H322M = assay: Growth inhibition of human NCI-H322M cells at 10^-5 M incubated for 48 hrs by sulforhodamine B assay; assay type: functional; details: read-out: GI
# SNB-19 = assay: Growth inhibition of human SNB19 cells at 10^-5 M incubated for 48 hrs by sulforhodamine B assay; assay type: functional; details: SNB-19, 48 h, read-out: GI
# CCRF-CEM = assay: Growth inhibition of human CCRF-CEM cells at 10^-5 M incubated for 48 hrs by sulforhodamine B assay; assay type: functional; details: read-out: GI
# HT-29 = assay: Growth inhibition of human HT-29 cells at 10^-5 M incubated for 48 hrs by sulforhodamine B assay; assay type: functional; details: HT-29, 48 h, read-out: GI
# PC-3 = assay: Growth inhibition of human PC3 cells at 10^-5 M incubated for 48 hrs by sulforhodamine B assay; assay type: functional; details: PC-3, 48 h, read-out: GI
# MDA-MB-468 = assay: Growth inhibition of human MDA-MB-468 cells at 10^-5 M incubated for 48 hrs by sulforhodamine B assay; assay type: functional; details: MDA-MB-468, 48 h, read-out: GI
# OVCAR-4 = assay: Growth inhibition of human OVCAR4 cells at 10^-5 M incubated for 48 hrs by sulforhodamine B assay; assay type: functional; details: OVCAR-4, 48 h, read-out: GI
# ACHN = assay: Growth inhibition of human ACHN cells at 10^-5 M incubated for 48 hrs by sulforhodamine B assay; assay type: functional; details: read-out: GI
# UO-31 [2] = assay: Growth inhibition of human UO31 cells at 10^-5 M incubated for 48 hrs by sulforhodamine B assay; assay type: functional; details: UO-31, 48 h, read-out: GI
# NCI-H522 = assay: Growth inhibition of human NCI-H522 cells at 10^-5 M incubated for 48 hrs by sulforhodamine B assay; assay type: functional; details: NCI-H522, 48 h, read-out: GI
# UO-31 [3] = assay: Cytotoxicity against human UO31 cells assessed as reduction in cell viability after 24 hrs by MTT assay; assay type: functional, cell-based; details: UO-31, 24 h
# BT-549 = assay: Growth inhibition of human BT549 cells at 10^-5 M incubated for 48 hrs by sulforhodamine B assay; assay type: functional; details: BT-549, 48 h, read-out: GI
# SK-MEL-2 = assay: Growth inhibition of human SK-MEL-2 cells at 10^-5 M incubated for 48 hrs by sulforhodamine B assay; assay type: functional; details: SK-MEL-2, 48 h, read-out: GI
# SN12C = assay: Growth inhibition of human SN12C cells at 10^-5 M incubated for 48 hrs by sulforhodamine B assay; assay type: functional; details: read-out: GI
# SF-268 = assay: Growth inhibition of human SF268 cells at 10^-5 M incubated for 48 hrs by sulforhodamine B assay; assay type: functional; details: SF-268, 48 h, read-out: GI
# MCF7 [4] = assay: Growth inhibition of human MCF7 cells at 10^-5 M incubated for 48 hrs by sulforhodamine B assay; assay type: functional; details: MCF7, 48 h, read-out: GI
# NCI-H23 = assay: Growth inhibition of human NCI-H23 cells at 10^-5 M incubated for 48 hrs by sulforhodamine B assay; assay type: functional; details: NCI-H23, 48 h, read-out: GI
SMILES,inhibition of growth at 10 µM (K562) [%],inhibition of growth at 10 µM (OVCAR-3) [%],inhibition of growth at 10 µM (A498) [%],inhibition of growth at 10 µM (Malme-3M) [%],inhibition of growth at 10 µM (NCI/ADR-RES) [%],inhibition of growth at 10 µM (NCI-H322M) [%],inhibition of growth at 10 µM (SNB-19) [%],inhibition of growth at 10 µM (CCRF-CEM) [%],inhibition of growth at 10 µM (HT-29) [%],inhibition of growth at 10 µM (PC-3) [%],inhibition of growth at 10 µM (MDA-MB-468) [%],inhibition of growth at 10 µM (OVCAR-4) [%],inhibition of growth at 10 µM (ACHN) [%],inhibition of growth at 10 µM (UO-31 [2]) [%],inhibition of growth at 10 µM (NCI-H522) [%],inhibition of growth at 10 µM (BT-549) [%],inhibition of growth at 10 µM (SK-MEL-2) [%],inhibition of growth at 10 µM (SN12C) [%],inhibition of growth at 10 µM (SF-268) [%],inhibition of growth at 10 µM (MCF7 [4]) [%],other results
O=[N+]([O-])c1cccc(C2NC(N3CCOCC3)=Nc3c2sc2ccc(Cl)cc32)c1 (stereo not drawn),-3.76,-0.17,1.88,4.08,-3.21,6.39,2.54,-3.36,-2.72,23,-5.77,1.77,10.4,41.8,3.46,-6.2,-1.1,3.85,3.84,23.1,IC50 (MCF7 [1]): 10.4 µg/mL; IC50 (UO-31 [3]): 3.11 µg/mL; inhibition of growth at 10 µM (NCI-H23): 13.4%
O=C1SC2=Nc3c(sc4ccc(Cl)cc34)C(c3ccc4ccccc4c3)N2C1=O (stereo not drawn),12,9.4,13.1,12.9,4.45,13.9,2.61,-5.01,-2.87,17.1,11.2,23.6,14.5,44.4,16.6,-19.9,14.1,13.2,12.7,68.7,IC50 (MCF7 [1]): 23.3 µg/mL; IC50 (UO-31 [3]): 46.7 µg/mL; inhibition of growth at 10 µM (NCI-H23): 20.5%
O=C1Nc2c(sc3ccc(Cl)cc23)C(c2cccc([N+](=O)[O-])c2)N1 (stereo not drawn),12.9,-1.08,15.5,16.6,6.5,10.4,5.92,-13.9,-3,10.8,8.51,7.21,9.21,35.2,9.73,7.02,2.08,7.07,6.35,21.8,inhibition of growth at 10 µM (NCI-H23): 9.8%
O=C1CC(=O)N(C2=Nc3c(sc4ccc(Cl)cc34)C(c3cccc([N+](=O)[O-])c3)N2)N1 (stereo not drawn),0.75,-6.5,6.96,-4.33,-2.89,2.7,-9.31,-32.1,-6.83,2.78,-2.44,-11.5,-11.9,38,9.63,-19.4,-3.18,18.3,-5.71,21.7,inhibition of growth at 10 µM (NCI-H23): 14.7%
N=C1Nc2c(sc3ccc(Cl)cc23)C(c2ccc3ccccc3c2)N1 (stereo not drawn),6.06,8.92,6.65,1.8,1.25,6.59,18.1,-3.9,-3.45,-10,-6.39,6.63,25.9,14.6,-6.52,5.47,-16.2,-25.1,-5.53,6.28,inhibition of growth at 10 µM (NCI-H23): 5.66%
O=C1/C(=C\c2ccccc2O)Sc2ccc(Cl)cc21,4.83,-11.6,3.49,4.11,6.5,10.4,-7.92,-1.92,-12.2,1.43,-4.1,1.63,2.5,-16,5.61,-20.1,1.25,5.15,5.86,-12.3,inhibition of growth at 10 µM (NCI-H23): 11.7%
S=C1Nc2c(sc3ccc(Cl)cc23)C(c2cccc(Br)c2)N1 (stereo not drawn),1.5,-0.26,31.7,-1,-3.15,5.66,2.38,-16.1,0.35,6.34,-5.67,8.7,4.77,-18.3,12,-10.2,-6.36,2.82,1.41,-11.9,inhibition of growth at 10 µM (NCI-H23): 12.2%
N=C1Nc2c(sc3ccc(Cl)cc23)C(c2cccc(Br)c2)N1 (stereo not drawn),13.7,0.84,-4.39,4.36,2.51,10.3,2.72,-20.7,-3.97,10.2,13.6,6.46,7.06,38.3,12.2,-21.8,-8.11,6.52,6.03,25.6,inhibition of growth at 10 µM (NCI-H23): 13.7%
O=C1Nc2c(sc3ccc(Cl)cc23)C(c2ccccc2O)N1 (stereo not drawn),14.7,4.91,17.4,15.8,1.65,7.77,2.91,-4.19,-3.51,15.2,0.19,9.71,9.18,-18.6,16,4.41,2.38,7.73,7.91,-8.18,inhibition of growth at 10 µM (NCI-H23): 13.5%
